Among the data in patent publication US7112612B2, “N-alkylated GABA compounds, processes for their preparation and their use as medicaments” (UCB S.A., priority 2000, dated 2006) are ED50 values, retold here.

The assay relates to genetically sound-sensitive mice (audiogenic seizures). As to the kind of experiment: audiogenic seizures test in sound-susceptible mice. The following applies: Mus musculus, ip, 1 h; dose producing 50% protection against clonic convulsions relative to control; intraperitoneally 60 minutes before induction of audiogenic seizures (90 dB, 10–20 kHz, 30 seconds); Probit Analysis; read-out: Clonic Convulsion (ED50). The format is in vivo. The text has this: The potent activity of the compounds of formula (I) or (II), or their pharmaceutically acceptable salts, as anticonvulsants was evidenced by audiogenic seizures test induced in sound-susceptible mice. These examples illustrate the invention without in any way limiting its scope. The objective of the following pharmacological test is to evaluate the anticonvulsant potency of a compound in sound-susceptible mice, a genetic animal model with reflex seizures. In this model of primary generalised epilepsy, seizures are evoked without electrical or chemical stimulation and the seizure types are, at least in part, similar in their clinical phenomenology to seizures occurring in man (Löscher W. & Schmidt D., Epilepsy Res. (1998), 2, p. 145–181; Buchhalter J. R., Epilepsia (1993), 34, S31–S41). The results obtained with the tested compounds of formula (I) and (II) show a strong pharmacological effect (see Table 4).
In order to study the activity of the compounds of formula (I) and (II) including the (S) and (R) forms of ethyl 4-{[1-(aminocarbonyl)propyl]amino}butanoate, as anticonvulsant, the applicant performed out a series of experiments based on the audiogenic seizures test in mice.
The objective of the following pharmacological test is to evaluate the anticonvulsant potency of a compound in sound-susceptible mice, a genetic animal model with reflex seizures. In this model of primary generalised epilepsy, seizures are evoked without electrical or chemical stimulation and the seizure types are, at least in part, similar in their clinical phenomenology to seizures occurring in man (Löscher W. and Schmidt D., Epilepsy Res. (1998), 2, p. 145–181; Buchhalter J. R., Epilepsia (1993), 34, S31–S41).
Male or female genetically sound-sensitive mice (14–28 g; N=10), derived from a DBA (Dilute Brown Agouti) strain originally selected by Dr. Lehmann of the Laboratory of Acoustic Physiology (Paris) and bred in the UCB Pharma Sector husbandry unit since 1978, were used. The experimental design consisted of several groups, one group receiving the vehicle control and the other groups different doses of the test-compound. The compounds were administered intraperitoneally 60 minutes before the induction of audiogenic seizures.
For testing, the animals were placed in small cages, one mouse per cage, in a sound-attenuated chamber. After a period of orientation of 30 seconds, the acoustic stimulus (90 dB, 10–20 kHz) was delivered for 30 seconds via loud speakers positioned above each cage; During this interval, the mice were observed and the presence of the 3 phases of the seizure activity, namely wild running, clonic and tonic convulsions, was recorded. The proportion of mice protected against wild running, clonic and tonic convulsions, respectively, was calculated.
For active compounds, an ED50 value, i.e. the dose producing 50% protection relative to the control group, together with 95% confidence limits, was calculated using a Probit Analysis (SAS/STATR Software, Version 6.09, PROBIT procedure) of the proportions of protected mice for each of the 3 phases of the seizure activity.

The structures appear in SMILES notation.

For orientation: ED50 means the dose that gives a 50% effect, or the effect in half of the subjects. `CCOC(=O)CCCNC(CC)C(N)=O` (racemic) [C, ethyl 4-{[1-(aminocarbonyl)propyl]amino}butanoate]: the ED50 was found to be 320 µmol/kg.
As to `CC[C@H](NCCCC(=O)OCc1ccccc1)C(N)=O` [Compound N, benzyl 4-{[(1S)-1-(aminocarbonyl)propyl]amino)butanoate], the ED50 came out at 220 µmol/kg.
Regarding `CCOC(=O)CCCN[C@@H](CC)C(N)=O` [D, ethyl 4-{[(1S)-1-(aminocarbonyl)propyl]amino}butanoate], the median effective dose (ED50) came out at 68 µmol/kg.
Consider `CC[C@H](NCCCC(=O)OC)C(N)=O` [F, methyl 4-{[(1S)-1-(aminocarbonyl)propyl]amino}butanoate], for which the ED50 amounted to 160 µmol/kg.
As for `CC[C@H](NCCCC(=O)OC(C)C)C(N)=O` [G, isopropyl 4-{[(1S)-1-(aminocarbonyl)propyl]amino}butanoate], the ED50 is 150 µmol/kg.
As for `CCC(NCCCC(=O)OC(C)(C)C)C(N)=O` [H, tertiobutyl 4-{[(1S)-1-(aminocarbonyl)propyl]amino}butanoate], the median effective dose (ED50) amounted to 520 µmol/kg.
`CC[C@H](NCCCC(=O)OCCC12CC3CC(CC(C3)C1)C2)C(N)=O` [I, 2-(1-adamantyl)ethyl 4-{[(1S)-1-(aminocarbonyl)propyl]amino}butanoate]: the 50% effective dose (ED50) was 130 µmol/kg.
Under `CC[C@H](NCCCC(=O)OC1CCCC1)C(N)=O` [J, cyclopentyl 4-{[(1S)-1-(aminocarbonyl)propyl]amino}butanoate] stands 340 µmol/kg.
Regarding `CCCCOC(=O)CCCN[C@@H](CC)C(N)=O` [K, butyl 4-{[(1S)-1-(aminocarbonyl)propyl]amino}butanoate], the 50% effective dose (ED50) is 1000 µmol/kg.
Regarding `CCCCCCCCOC(=O)CCCN[C@@H](CC)C(N)=O` [L, octyl 4-{[(1S)-1-(aminocarbonyl)propyl]amino}butanoate], the median effective dose (ED50) worked out at 160 µmol/kg.
Under `CC[C@H](NCCCC(=O)OCC(C)C)C(N)=O` [M, isobutyl 4-{[(1S)-1-(aminocarbonyl)propyl]amino}butanoate] stands 360 µmol/kg.
On to `CCCC(CCC)COC(=O)CCCN[C@@H](CC)C(N)=O` [O, 2-propylpentyl 4-{[(1S)-1-(aminocarbonyl)propyl]amino}butanoate], for which the ED50 turned out to be 120 µmol/kg.
For `CCCOC(=O)CCCN[C@@H](CC)C(N)=O` [P, propyl 4-{[(1S)-1-(aminocarbonyl)propyl]amino}butanoate], the ED50 amounted to 200 µmol/kg.
In the case of `CC[C@H](NCCCC(=O)SC(C)C)C(N)=O` [W, S-isopropyl 4-{[(1S)-1-(aminocarbonyl)propyl]amino}butanethioate], the median effective dose (ED50) worked out at 540 µmol/kg.
